Tested on: human multiple myeloma cells
Experiment: Cell proliferation (Cell TiterGlo) synergy of HDAC inhibitor with bortezomib
Format: cell-based
Conditions: two cultures of human multiple myeloma cells, bortezomib 0, 2.5 nM, 5.0 nM
Protocol: FIG. 7. […] Synergistic effects on cell proliferation were determined by varying concentrations of each HDAC inhibitor in the presence of varied concentrations of the proteasome inhibitor, bortezomib. Two cultures of human multiple myeloma cells were used for this study. Data presented are the IC50 data for the HDAC inhibitor studied (first column) in the presence of increasing concentrations of bortezomib (0, 2.5 nM, or 5.0 nM). The measurement of cell proliferation used is the Cell TiterGlo assay (Promega), which uses bioluminescence to report on ATP content in cultured cells.

For `O=C(CCCCCCC(=O)Nc1ccc([C@H]2O[C@@H](CSc3nc(-c4ccccc4)c(-c4ccccc4)o3)C[C@@H](c3ccc(CO)cc3)O2)cc1)NO` [tubacin, reference compound], the “Synergy with bortezomib on cell proliferation” value was “most pronounced synergy”.

From US9434686B2, “Deacetylase inhibitors and uses thereof” (President and Fellows of Harvard College, priority 2008, dated 2016)
